Laboratory results reported in patent US20230077362A1 (CORTEVA AGRISCIENCE LLC, priority 2019, published 2023).
Like-named read-outs stand apart in the source and are kept apart here.

Columns and labels:
[1] = system: Beet Armyworm (Spodoptera exigua) ("BAW"), second instar larvae; assay: Bioassay on beet armyworm (BAW), 128-well diet tray assay; type: in vivo; conditions: for pest or weed control at 50 µg/cm2: Spodoptera exigua; for BAW rating: Table ABC, species BAW, C = not tested, D = no activity noticed
Summary of the method: (§1)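 Read-out: percent larval mortality per well, averaged over 8 wells. Incubation 25° C., 14:10 L:D photoperiod, 5–7 days, trays sealed with clear adhesive cover.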

[2] = system: Cabbage Looper (Trichoplusia ni) ("CL"), second instar larvae; assay: Bioassay on cabbage looper (CL), 128-well diet tray assay; type: in vivo; conditions: for pest or weed control at 50 µg/cm2: Trichoplusia ni; for CL rating: Table ABC, species CL, C = not tested, D = no activity noticed
Summary of the method: as §1

[3] = read-out: BAW (Biological Results, rating)
[4] = read-out: CL (Biological Results, rating)

Structure (SMILES)	pest or weed control at 50 µg/cm2 ([1]; read-out: BAW rating) [%]	pest or weed control at 50 µg/cm2 ([2]; read-out: CL rating) [%]	pest or weed control at 50 µg/cm2 [1, 3] [%]	pest or weed control at 50 µg/cm2 [2, 4] [%]	further results
CCOC(C)c1ccc(C)cc1N1C(=O)CS/C1=N\C(=O)Nc1ccc(-c2ncn(-c3ccc(S(F)(F)(F)(F)F)cc3)n2)cc1C#N (stereo not shown) [Compound J586, (Z)-1-(2-Cyano-4-(1-(4-(pentafluoro-λ^6-sulfaneyl)phenyl)-1H-1,2,4-triazol-3-yl)phenyl)-3-(3-(2-(1-ethoxyethyl)-5-methylphenyl)-4-oxothiazolidin-2-ylidene)urea]	50 to 100	50 to 100	–	–	–
Cc1ccc(OCCC(F)(F)F)c(N2C(=O)CS/C2=N\C(=O)Nc2ccc(-n3cnc(-c4ccc(OC(F)(F)F)cc4)n3)cc2)c1 [Compound J404, (Z)-1-(3-(5-Methyl-2-(3,3,3-trifluoropropoxy)phenyl)-4-oxothiazolidin-2-ylidene)-3-(4-(3-(4-(trifluoromethoxy)phenyl)-1H-1,2,4-triazol-1-yl)phenyl)urea]	50 to 100	50 to 100	–	–	–
CCCNc1ccc(C(C)C)c(N2C(=O)CS/C2=N\C(=O)Nc2ccc(-c3ncn(-c4ccc(OC(F)(F)F)cc4)n3)cc2CC)c1 [Compound J159, (Z)-1-(2-Ethyl-4-(1-(4-(trifluoromethoxy)phenyl)-1H-1,2,4-triazol-3-yl)phenyl)-3-(3-(2-isopropyl-5-(propylamino)phenyl)-4-oxothiazolidin-2-ylidene)urea]	–	–	50 to 100	50 to 100	–
Cc1ccc(COCC(F)F)c(N2C(=O)CS/C2=N\C(=O)Nc2ccc(-c3ncn(-c4ccc(OC(F)(F)F)cc4)n3)cc2C)c1 [Compound J420]	–	–	–	–	BAW rating [1]: A (50-100); CL rating [2]: A (50-100)
Cc1cc(-c2ncn(-c3ccc(S(=O)(=O)C(F)(F)F)cc3)n2)ccc1NC(=O)/N=C1\SCC(=O)N1c1cc(N(C)C)c(F)cc1C(C)C [Compound J375, (Z)-1-(3-(5-(Dimethylamino)-4-fluoro-2-isopropylphenyl)-4-oxothiazolidin-2-ylidene)-3-(2-methyl-4-(1-(4-((trifluoromethyl)sulfonyl)phenyl)-1H-1,2,4-triazol-3-yl)phenyl)urea]	50 to 100	50 to 100	–	–	–
COC(c1ccc(C)cc1N1C(=O)CS/C1=N\C(=O)Nc1ccc(-c2ncn(-c3ccc(C(F)F)cn3)n2)cc1F)C(F)(F)F (stereo not shown) [Compound J353]	–	–	–	–	BAW (Biological Results, rating) ([1]; Beet Armyworm (Spodoptera exigua), C = Not Tested): A (50-100); CL (Biological Results, rating) ([2]; Cabbage Looper (Trichoplusia ni), C = Not Tested): A (50-100)
Cc1ccc(COCC(F)(F)F)c(N2C(=O)CS/C2=N\C(=O)Nc2ccc(-c3ncn(-c4ccc(OC(F)(F)F)cc4)n3)cc2C(F)(F)F)c1 [Compound J165, (Z)-1-(3-(5-Methyl-2-((2,2,2-trifluoroethoxy)methyl)phenyl)-4-oxothiazolidin-2-ylidene)-3-(4-(1-(4-(trifluoromethoxy)phenyl)-1H-1,2,4-triazol-3-yl)-2-(trifluoromethyl)phenyl)urea]	–	–	50 to 100	50 to 100	–
Cc1cc(-c2ncn(-c3ccc(OC(F)(F)F)cc3)n2)cc(C)c1NC(=O)/N=C1\SCC(=O)N1c1cc(N(C)C)ccc1C(C)C [Compound J96, (Z)-1-(2,6-Dimethyl-4-(1-(4-(trifluoromethoxy)phenyl)-1H-1,2,4-triazol-3-yl)phenyl)-3-(3-(5-(dimethylamino)-2-isopropylphenyl)-4-oxothiazolidin-2-ylidene)urea]	–	–	50 to 100	50 to 100	–
CC(C)c1ccc(N(C)C)cc1N1C(=O)CS/C1=N\C(=O)Nc1ccc(-c2ncn(-c3ccc(OCC#N)cc3)n2)cc1F [Compound J342, (Z)-1-(4-(1-(4-(Cyanomethoxy)phenyl)-1H-1,2,4-triazol-3-yl)-2-fluorophenyl)-3-(3-(5-(dimethylamino)-2-isopropylphenyl)-4-oxothiazolidin-2-ylidene)urea]	–	–	50 to 100	50 to 100	–
Cc1ccc(N2C(=O)CS/C2=N\C(=O)Nc2ccc(-c3ncn(-c4ccc(OC(F)(F)F)cc4)n3)cc2C)c(COCC(F)(F)F)c1 [Compound J448]	–	–	–	–	BAW rating [1]: A (50-100); CL rating [2]: A (50-100)
Cc1ccc(C(C)C)c(N2C(=O)CS/C2=N\C(=O)Nc2ccc(-c3ncn(-c4ccc(OC(F)(F)F)cc4)n3)cc2Cl)c1 [Compound J38, (Z)-1-(2-Chloro-4-(1-(4-(trifluoromethoxy)phenyl)-1H-1,2,4-triazol-3-yl)phenyl)-3-(3-(2-isopropyl-5-methylphenyl)-4-oxothiazolidin-2-ylidene)urea]	–	–	50 to 100	50 to 100	–
COC(C)c1ccc(C)cc1N1C(=O)CS/C1=N\C(=O)Nc1ccc(-n2cnc(-c3ccc(OC(F)(F)F)cc3)n2)cc1C (stereo not shown) [Compound J467, (Z)-1-(3-(2-(1-Methoxyethyl)-5-methylphenyl)-4-oxothiazolidin-2-ylidene)-3-(2-methyl-4-(3-(4-(trifluoromethoxy)phenyl)-1H-1,2,4-triazol-1-yl)phenyl)urea]	50 to 100	50 to 100	–	–	–
CCOCc1ccc(C)cc1N1C(=O)CS/C1=N\C(=O)Nc1ccc(-c2ncn(-c3cc(C(F)(F)F)cc(C(F)(F)F)c3)n2)cc1C [Compound J763, (Z)-1-(4-(1-(3,5-Bis(trifluoromethyl)phenyl)-1H-1,2,4-triazol-3-yl)-2-methylphenyl)-3-(3-(2-(ethoxymethyl)-5-methylphenyl)-4-oxothiazolidin-2-ylidene)urea]	50 to 100	50 to 100	–	–	–
CC(C)c1ccc(N(C)C)cc1N1C(=O)CS/C1=N\C(=O)Nc1ccc(-c2cn(-c3ccc(C(F)(F)F)cn3)cn2)cc1 [Compound J520, (Z)-1-(3-(5-(Dimethylamino)-2-isopropylphenyl)-4-oxothiazolidin-2-ylidene)-3-(4-(1-(5-(trifluoromethyl)pyridin-2-yl)-1H-imidazol-4-yl)phenyl)urea]	50 to 100	50 to 100	–	–	–
Cc1ccc(COCC(F)(F)F)c(N2C(=O)CS/C2=N\C(=O)Nc2ccc(-c3cn(-c4ccc(C(F)(F)F)cn4)cn3)cc2C)c1 [Compound J511, (Z)-1-(3-(5-Methyl-2-((2,2,2-trifluoroethoxy)methyl)phenyl)-4-oxothiazolidin-2-ylidene)-3-(2-methyl-4-(1-(5-(trifluoromethyl)pyridin-2-yl)-1H-imidazol-4-yl)phenyl)urea]	50 to 100	50 to 100	–	–	–
O=C(/N=C1\SCC(=O)N1c1ccc(Cl)cc1COCc1ccccc1)Nc1ccc(-c2ncn(-c3ccc(OC(F)(F)F)cc3)n2)cc1F [Compound J636, (Z)-1-(3-(2-((Benzyloxy)methyl)-4-chlorophenyl)-4-oxothiazolidin-2-ylidene)-3-(2-fluoro-4-(1-(4-(trifluoromethoxy)phenyl)-1H-1,2,4-triazol-3-yl)phenyl)urea]	50 to 100	0 to 50	–	–	–
O=C(/N=C1\SCC(=O)N1c1cc(Cl)ccc1C(F)(F)F)NCC(F)c1ccc(-c2ncn(-c3ccc(OC(F)(F)F)cc3)n2)cc1 (stereo not shown) [Compound H6]	–	–	50 to 100	50 to 100	–
CN(C)c1ccc(OCC(F)(F)F)c(N2C(=O)CS/C2=N\C(=O)Nc2ccc(-n3cnc(-c4ccc(C(F)(F)F)cc4)n3)cc2F)c1 [Compound J697, (Z)-1-(3-(5-(Dimethylamino)-2-(2,2,2-trifluoroethoxy)phenyl)-4-oxothiazolidin-2-ylidene)-3-(2-fluoro-4-(3-(4-(trifluoromethyl)phenyl)-1H-1,2,4-triazol-1-yl)phenyl)urea]	50 to 100	50 to 100	–	–	–
COC(c1ccc(C)cc1N1C(=O)CS/C1=N\C(=O)Nc1ccc(-n2cnc(-c3ccc(OC(F)(F)F)cc3)n2)cc1C)C(F)(F)F (stereo not shown) [Compound J443, (Z)-1-(3-(5-Methyl-2-(2,2,2-trifluoro-1-methoxyethyl)phenyl)-4-oxothiazolidin-2-ylidene)-3-(2-methyl-4-(3-(4-(trifluoromethoxy)phenyl)-1H-1,2,4-triazol-1-yl)phenyl)urea]	50 to 100	50 to 100	–	–	–
N#Cc1ccc(OCCC(F)(F)F)c(N2C(=O)CS/C2=N\C(=O)Nc2ccc(-c3ncn(-c4ccc(S(=O)(=O)C(F)(F)F)cc4)n3)cc2F)c1 [Compound J372, (Z)-1-(3-(5-Cyano-2-(3,3,3-trifluoropropoxy)phenyl)-4-oxothiazolidin-2-ylidene)-3-(2-fluoro-4-(1-(4-((trifluoromethyl)sulfonyl)phenyl)-1H-1,2,4-triazol-3-yl)phenyl)urea]	50 to 100	50 to 100	–	–	–
COc1ccc(C(C)C)c(N2C(=O)CS/C2=N\C(=O)Nc2ccc(-c3ncn(-c4ccc(OC(F)(F)F)cn4)n3)cc2C#N)c1 [Compound J268, (Z)-1-(2-Cyano-4-(1-(5-(trifluoromethoxy)pyridin-2-yl)-1H-1,2,4-triazol-3-yl)phenyl)-3-(3-(2-isopropyl-5-methoxyphenyl)-4-oxothiazolidin-2-ylidene)urea]	–	–	50 to 100	50 to 100	–
COCc1ccc(C)cc1N1C(=O)CS/C1=N\C(=O)Nc1ccc(-c2noc(-c3ccc(OC(F)(F)F)cc3)n2)cc1F [Compound J772, (Z)-1-(2-Fluoro-4-(5-(4-(trifluoromethoxy)phenyl)-1,2,4-oxadiazol-3-yl)phenyl)-3-(3-(2-(methoxymethyl)-5-methylphenyl)-4-oxothiazolidin-2-ylidene)urea]	50 to 100	50 to 100	–	–	–
Cc1ccc(OCC(F)(F)F)c(N2C(=O)CS/C2=N\C(=O)Nc2c(F)cc(-c3ncn(-c4ccc(OC(F)(F)F)cc4)n3)cc2F)c1 [Compound J79, (Z)-1-(2,6-Difluoro-4-(1-(4-(trifluoromethoxy)phenyl)-1H-1,2,4-triazol-3-yl)phenyl)-3-(3-(5-methyl-2-(2,2,2-trifluoroethoxy)phenyl)-4-oxothiazolidin-2-ylidene)urea]	–	–	50 to 100	50 to 100	–
